What follows are compounds tested against GST-tagged-Wee1 kinase (Homo sapiens, UniProt P30291) (assay: Wee1 time-resolved fluorescence equilibrium binding assay (displacement of Oregon Green-labeled ATP-competitive kinase probe)). Details: not given.
GST-tagged-Wee1 kinase, sequence (P30291 whole entry): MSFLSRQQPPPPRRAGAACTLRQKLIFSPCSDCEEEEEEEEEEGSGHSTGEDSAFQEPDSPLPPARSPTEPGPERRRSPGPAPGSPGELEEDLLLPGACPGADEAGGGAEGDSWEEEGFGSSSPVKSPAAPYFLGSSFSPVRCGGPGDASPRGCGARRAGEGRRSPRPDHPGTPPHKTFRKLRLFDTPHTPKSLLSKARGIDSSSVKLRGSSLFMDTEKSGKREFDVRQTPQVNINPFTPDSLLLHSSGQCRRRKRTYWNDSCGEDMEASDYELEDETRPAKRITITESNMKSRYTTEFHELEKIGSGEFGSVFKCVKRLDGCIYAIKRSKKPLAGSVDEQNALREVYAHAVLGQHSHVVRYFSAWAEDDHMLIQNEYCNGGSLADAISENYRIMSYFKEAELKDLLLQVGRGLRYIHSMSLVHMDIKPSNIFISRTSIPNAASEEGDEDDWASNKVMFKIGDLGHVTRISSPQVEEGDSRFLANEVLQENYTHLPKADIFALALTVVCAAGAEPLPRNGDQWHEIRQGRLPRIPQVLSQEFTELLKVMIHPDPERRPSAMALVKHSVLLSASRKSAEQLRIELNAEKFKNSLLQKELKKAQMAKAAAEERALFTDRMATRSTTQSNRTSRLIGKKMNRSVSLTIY
Description: Wee1 kinase was assayed using a time-resolved fluorescence equilibrium binding assay monitoring displacement of a rapidly reversible Oregon Green-labeled ATP-competitive kinase probe (N-(2-(2-(2-(4-(4-(5-chloro-4-(2-(1-hydroxycyclobutyl)thiazol-5-yl)-1H-pyrrolo[2,3-b]pyridin-2-yl)phenyl)piperazin-1-yl)ethoxy)ethoxy)ethyl)-2′,7′-difluoro-3′,6′-dihydroxy-3-oxo-3H-spiro[isobenzofuran-1,9′-xanthene]-5-carboxamide) by competitive Wee1 inhibitors.
Work on CC(=O)c1cccc(-c2nn(-c3c(Cl)cccc3Cl)c(=O)c3cnc(Nc4ccc(N5CCN(C)CC5)cc4)nc23)c1 [Example 185, 8-(3-acetylphenyl)-6-(2,6-dichlorophenyl)-2-{[4-(4-methylpiperazin-1-yl)phenyl]amino}pyrimido[4,5-d]pyridazin-5(6H)-one] yielded a Ki of 0.04 nM.
Work on CN1CCN(c2ccc(Nc3ncc4c(=O)n(-c5c(Cl)cccc5Cl)nc(-c5ccccc5F)c4n3)cc2)CC1 [Example 45, 6-(2,6-dichlorophenyl)-8-(2-fluorophenyl)-2-{[4-(4-methylpiperazin-1-yl)phenyl]amino}pyrimido[4,5-d]pyridazin-5(6H)-one] yielded a Ki of 1 nM.
Cn1cnc(-c2nn(-c3c(Cl)cccc3Cl)c(=O)c3cnc(Nc4ccc(N5CCNCC5)cc4)nc23)c1 [Example 340, 6-(2,6-dichlorophenyl)-8-(1-methyl-1H-imidazol-4-yl)-2-{[4-(piperazin-1-yl)phenyl]amino}pyrimido[4,5-d]pyridazin-5(6H)-one] gave a Ki of 0.32 nM.
CN1CCN(c2ccc(Nc3ncc4c(=O)n(-c5c(Cl)cccc5Cl)nc(-c5cccc(-c6c[nH]cn6)c5)c4n3)cc2)CC1 [Example 91, 6-(2,6-dichlorophenyl)-8-[3-(1H-imidazol-4-yl)phenyl]-2-{[4-(4-methylpiperazin-1-yl)phenyl]amino}pyrimido[4,5-d]pyridazin-5(6H)-one] gave a Ki of 0.3 nM.
In the case of Cc1cc(Nc2ncc3c(=O)n(-c4c(Cl)cccc4Cl)nc(-c4ccn(C)n4)c3n2)ccc1N1CCCN(C)CC1 [Example 152, 6-(2,6-dichlorophenyl)-2-{[3-methyl-4-(4-methyl-1,4-diazepan-1-yl)phenyl]amino}-8-(1-methyl-1H-pyrazol-3-yl)pyrimido[4,5-d]pyridazin-5(6H)-one], the Ki is reported as 0.04 nM.
For Cc1nn(-c2c(Cl)cccc2Cl)c(=O)c2cnc(Nc3ccc4c(c3)CN(C(=O)CO)CC43CC3)nc12 [Example 426, 6-(2,6-dichlorophenyl)-2-{[2′-(hydroxyacetyl)-2′,3′-dihydro-1′H-spiro[cyclopropane-1,4′-isoquinolin]-7′-yl]amino}-8-methylpyrimido[4,5-d]pyridazin-5(6H)-one], the Ki was 0.11 nM.
For C=CCn1nc(-c2ccco2)c2nc(Nc3ccc(N4CCN(C(C)C)CC4)c(OC)c3)ncc2c1=O [Example 136, 6-allyl-8-(2-furyl)-2-{[4-(4-isopropylpiperazin-1-yl)-3-methoxyphenyl]amino}pyrimido[4,5-d]pyridazin-5(6H)-one], the Ki was 14 nM.
Work on Cc1nn(-c2c(Cl)cccc2Cl)c(=O)c2cnc(Nc3ccc4c(c3)CN(C(N)=O)CC43CC3)nc12 [Example 416, 7′-{[6-(2,6-dichlorophenyl)-8-methyl-5-oxo-5,6-dihydropyrimido[4,5-d]pyridazin-2-yl]amino}-1′H-spiro[cyclopropane-1,4′-isoquinoline]-2′(3′H)-carboxamide] yielded a Ki of 0.19 nM.
O=c1c2cnc(Nc3ccc4c(c3)CNCC43CC3)nc2c(-c2ccccn2)nn1-c1ccncc1Cl [Example 385, 6-(3-chloropyridin-4-yl)-2-(2′,3′-dihydro-1′H-spiro[cyclopropane-1,4′-isoquinolin]-7′-ylamino)-8-(pyridin-2-yl)pyrimido[4,5-d]pyridazin-5(6H)-one] gave a Ki of 7.2 nM.
CN1CCN(c2ccc(Nc3ncc4c(=O)n(-c5ccccc5Cl)nc(-c5cccc(Br)c5)c4n3)cc2)CC1 [Example 65, 8-(3-bromophenyl)-6-(2-chlorophenyl)-2-{[4-(4-methylpiperazin-1-yl)phenyl]amino}pyrimido[4,5-d]pyridazin-5(6H)-one] was tested, and the Ki was 1 nM.
Compound CN1CCN(CCn2cc(-c3nn(-c4c(Cl)cccc4Cl)c(=O)c4cnc(Nc5ccc(N6CCN(C)CC6)cc5)nc34)cn2)CC1 [Example 214, 6-(2,6-dichlorophenyl)-8-{1-[2-(4-methylpiperazin-1-yl)ethyl]-1H-pyrazol-4-yl}-2-{[4-(4-methylpiperazin-1-yl)phenyl]amino}pyrimido[4,5-d]pyridazin-5(6H)-one] has a Ki of 0.4 nM.
For Cc1nn(-c2c(Cl)cccc2Cl)c(=O)c2cnc(Nc3ccc(C4CCCN4)cc3)nc12 (stereo not drawn) [Example 455, 6-(2,6-dichlorophenyl)-8-methyl-2-{[4-(pyrrolidin-2-yl)phenyl]amino}pyrimido[4,5-d]pyridazin-5(6H)-one], the Ki was 0.5 nM.
O=c1c2cnc(Nc3ccc4c(c3)CNCC4)nc2c(-c2cnccn2)nn1-c1c(Cl)cccc1Cl [Example 251, 6-(2,6-dichlorophenyl)-8-(pyrazin-2-yl)-2-(1,2,3,4-tetrahydroisoquinolin-7-ylamino)pyrimido[4,5-d]pyridazin-5(6H)-one] gave a Ki of 0.2 nM.
Work on CNC(=O)c1ccc(-c2nn(-c3c(Cl)cccc3Cl)c(=O)c3cnc(Nc4ccc(N5CCN(C)CC5)cc4)nc23)cc1 [Example 293, 4-[6-(2,6-dichlorophenyl)-2-{[4-(4-methylpiperazin-1-yl)phenyl]amino}-5-oxo-5,6-dihydropyrimido[4,5-d]pyridazin-8-yl]-N-methylbenzamide] yielded a Ki of 0.25 nM.
With O=c1c2cnc(Nc3ccc(N4CCNCC4)cc3)nc2c(-c2ccccn2)nn1-c1c(Cl)cccc1Cl [Example 284, 6-(2,6-dichlorophenyl)-2-{[4-(piperazin-1-yl)phenyl]amino}-8-(pyridin-2-yl)pyrimido[4,5-d]pyridazin-5(6H)-one] the Ki was 0.36 nM.
CN1Cc2cc(Nc3ncc4c(=O)n(C5CCCCC5)nc(-c5ccccn5)c4n3)ccc2C(C)(C)C1 [Example 262, 6-cyclohexyl-8-(pyridin-2-yl)-2-[(2,4,4-trimethyl-1,2,3,4-tetrahydroisoquinolin-7-yl)amino]pyrimido[4,5-d]pyridazin-5(6H)-one] was tested, and the Ki was 590 nM.
CNC(C)c1cccc(-c2nn(-c3c(Cl)cccc3Cl)c(=O)c3cnc(Nc4ccc(N5CCN(C)CC5)cc4)nc23)c1 (stereo not drawn) [Example 186, 6-(2,6-dichlorophenyl)-8-{3-[1-(methylamino)ethyl]phenyl}-2-{[4-(4-methylpiperazin-1-yl)phenyl]amino}pyrimido[4,5-d]pyridazin-5(6H)-one] showed a Ki of 0.02 nM.
C=CCn1nc(C2CC(F)(F)C2)c2nc(Nc3ccc(N4CCN(C)CC4)cc3)ncc2c1=O [Example 196, 8-(3,3-difluorocyclobutyl)-2-{[4-(4-methylpiperazin-1-yl)phenyl]amino}-6-(prop-2-en-1-yl)pyrimido[4,5-d]pyridazin-5(6H)-one] was tested, and the Ki was 230 nM.
Work on CNCCn1cc(-c2nn(-c3c(Cl)cccc3Cl)c(=O)c3cnc(Nc4ccc(N5CCN(C)CC5)cc4)nc23)cn1 [Example 211, 6-(2,6-dichlorophenyl)-8-{1-[2-(methylamino)ethyl]-1H-pyrazol-4-yl}-2-{[4-(4-methylpiperazin-1-yl)phenyl]amino}pyrimido[4,5-d]pyridazin-5(6H)-one] yielded a Ki of 0.6 nM.
For COCc1nn(-c2c(Cl)cccc2Cl)c(=O)c2cnc(Nc3ccc4c(c3)CNCC43CC3)nc12 [Example 428, 6-(2,6-dichlorophenyl)-2-(2′,3′-dihydro-1′H-spiro[cyclopropane-1,4′-isoquinolin]-7′-ylamino)-8-(methoxymethyl)pyrimido[4,5-d]pyridazin-5(6H)-one], the Ki was 0.24 nM.

Same assay, conditions: read-out: Wee-1 inhibition Ki
Compound “6-(2-chlorophenyl)-8-(6-chloropyridin-2-yl)-2-{[4-(4-methylpiperazin-1-yl)phenyl]amino}pyrimido[4,5-d]pyridazin-5(6H)-one [Example 77]” has a Ki of 0.7 nM.
